The record followed here is patent US6372897B1, “Mimotopic polypeptides of toxoplasma gondii and applications” (priority 1995, dated 2002).

Ends that are not written are not given here.

The target of test [1] is phage clone displaying the pentadecapeptide Trp-His-Trp-Arg-His-Arg-Ile-Pro-Leu-Gln-Leu-Ala-Ala-Gly-Arg (SEQ ID No.48) fused in the PIII protein (filamentous phage). The test is described as follows: phage ELISA, phages captured by anti-M13 antibodies, 1E1E7 at 3 nM. (In an ELISA, binding on a coated surface is turned into a signal by an enzyme label.)
The subject of test [2] is anti-P30 monoclonal antibody 1E1E7. Kind of test: Spotscan overlapping pentadecapeptides on cellulose membrane, immunoreactivity with 1E1E7. Type of test: binding, mouse. The settings on record: 1E1E7 60 nM. Here is the method:
According to the “Spotscan” technique, the synthesis of the peptides is carried out on cellulose membranes (Cambridge Research Biochemicals). The principle of the method is the same as that for Pepscan. The esterified amino acids are solubilized in N-methylpyrrolidone (NMP) at the concentration of […] and 0.9 μl are deposited at the level of spots for the deposition of bromophenol blue. After a 15 minute incubation, another deposition of amino acids is carried out followed by another 15 minute incubation. If the coupling between the two amino acids is carried out correctly, a change in color is observed (passage from blue to yellowish green). After three washes in DMF, an acetylation step is carried out with acetic anhydride. Then the terminal amino groups of the peptides being synthesized are deprotected with 20% piperidine in DMF. The deposition spots are restained with a 1% bromophenol blue solution in DMF, washed three times with methanol and dried. These operations as a whole constitute a cycle for addition of an amino acid and this cycle is repeated up to the end of the synthesis. When all the amino acids have been added, the NH2-terminal group of the last amino acid is deprotected with 20% piperidine in DMF and is acetylated with acetic anhydride. The side chain protecting groups are removed by a dichloromethane:trifluoroacetic acid:triisobutylsilane mixture (5 ml:5 ml:250 μl). The immunoreactivity of the peptides thus synthesized can then be tested by ELISA.
In order to reproduce the entire pentadecapeptide included in the phage clone isolated and to determine the possible role of the contiguous amino acids belonging to the sequence of the PIII protein of the phage (see Example 1), the chemical synthesis of overlapping pentadecapeptides, which cover the sequence […](SEQ ID No.59), was carried out on an activated cellulose membrane (“Spotscan”).
After synthesis of the various pentadecapeptides, the membrane is rinsed with methanol, washed in TBS (0.1M Tris, pH 7.2) and then incubated overnight at room temperature in saturation buffer (marketed by Cambridge Research Biochemicals). After several washes with TBS-T (0.1M Tris, pH 7.2-0.05% Tween 20), the membrane is brought into contact with a solution of anti-P30 monoclonal antibody 1E1E7 (60 nM) and incubated for 4 hours at room temperature. After three washes with TBS-T, the anti-mouse immunoglobulin conjugate labeled with galactosidase (marketed by Cambridge Research Biochemicals) is added at a 1/200 dilution and the whole is incubated for two hours at room temperature. After several washes of the membrane with PBS-Tween 0.05% and PBS, the immunoreactivity at the level of the various spots is visualized by adding a solution of substrate (5-bromo-4-chloro-3-indoyl-D-galactopyranoside in PBS containing magnesium chloride and potassium ferricyanide) and incubating for 10 to 40 minutes. The color of the spots is assessed qualitatively.

The target in test [3] is T1, phage clone identified (SEQ ID No.48) (Enterobacteria phage fd, UniProt P03661).
T1 construct: made in house; host or cells: E. coli (K19Kan), phage amplification
Kind of test: ELISA: inhibition by human serum of the attachment of monoclonal antibody 1E1E7 to the phage clone. The settings on record: phages containing the sequence. Format: binding. Here is the method: The ELISA test was carried out as described in Example 2 with the following modifications: 100 μl of various dilutions of human serum of a patient infected with Toxoplasma gondii (positive serum—reference G8) are brought into contact with the. phage clone identified, immobilized as described in Example 2, for 30 minutes at 37° C. After two washes with TBS/Tween 0.05%, 100 μl of monoclonal antibody 1E1E7 at the concentration of 6 nM are added and incubated overnight at 4° C. After four washes with TBS/Tween, 100 μl of anti-mouse conjugate labeled with peroxidase are added and then incubated for one hour at 37° C. The enzymatic reaction for visualization was carried out by adding 100 μl of an H2O2/orthophenylenediamine (OPD) solution and incubating the sample for 30 minutes at room temperature. The staining reaction is stopped by adding 50 μl of 1.8N sulfuric acid. The optical density is measured on a BioMé rieux plate reader at 492 nm. Moreover, a control was produced, under the same reaction conditions but with a human serum not infected with Toxoplasma gondii (negative serum), in order to ensure that the phage clone identified reacts specifically with the human serum of a patient infected with Toxoplasma gondii.

For test [4], the system named is anti-P30 monoclonal antibody 1E1E7. Kind of test: Competition ELISA: inhibition by native P30 protein of the ELISA response of the phage clone. Type of test: binding, mouse. The settings on record: phage clone SEQ ID No.48. As to the method: A competition ELISA test was carried out in order to determine if the response obtained with the phage clone identified is inhibited by pre-incubation of the anti-P30 monoclonal antibody 1E1E7 with the P30 protein.
The ELISA test is carried out as described in Example 2 with the following modifications: the monoclonal antibody 1E1E7 (at the concentration of 6 nM) is preincubated with various concentrations of P30 protein for 20 minutes at 37° C. and then the mixture is added to the wells of the ELISA plate in which the phages corresponding to the pentadecapeptide Trp-His-Trp-Arg-His-Arg-Ile-Pro-Leu-Gln-Leu-Ala-Ala-Gly-Arg (SEQ ID No.48) are attached.

In test [1], “anti-P30 monoclonal antibody 1E1E7 (BioMerieux)” yielded an OD (492 nm) of 0.269 to 0.274 OD 492 nm.

RIPLQLAAGRGAAGA [SEQ ID No.32]: the “Color of the spots (immunoreactivity), assessed qualitatively” value (shortened to “Color of the spots (immunoreactivity)”) in test [2] is “maximum”.

Take SADGAWHWRHRIPLQ [SEQ ID No.231]: the “Color of the spots (immunoreactivity)” value in test [2] was “a first color”.

Consider WHWRHRIPLQLAAGR [SEQ ID No.48], for which the “Recognition by the antibodies present in the sera of patients infected with Toxoplasma gondii” value in test [3] is on record as “indeed recognized”.

Regarding IPLQLAAGRGAAGAE [SEQ ID No.33], the “Color of the spots (immunoreactivity)” value in test [2] is given as “very slight color”.

PLQLAAGRGAAGAET [SEQ ID No.34]: the “Color of the spots (immunoreactivity)” value in test [2] is on record as “disappears completely”.

Take HRIPLQLAAGRGAAG [SEQ ID No.9]: the “Color of the spots (immunoreactivity)” value in test [2] is given as “maximum”.

B1: P30 protein: the Toxoplasma gondii major antigen, peptide sequence identified by SEQ ID No.1 (protein)
chain: MSVSLHHFIISSGFLTSMFPKAVRRAVTAGVFAAPTLMSFLRCGVMASDPPLVANQVVTCPDKKSTAAVILTPTENHFTLKCPKTALTEPPTLAYSPNRQICPAGTTSSCTSKAVTLSSLIPEAEDSWWTGDSASLDTAGIKLTVPIEKFPVTTQTFVVGCIKGDDAQSCMVTVTVQARASSVVNNVARCSYGADSTLGPVKLSAEGPTTMTLVCGKDGVKVPQDNNQYCSGTTLTGCNEKSFKDILPKLTENPWQGNASSDKGATLTINKEAFPAESKSVIIGCTGGSPEKHHCTVKLEFAGAAGSAKSSAGTASHVSIFAMVTGLIGSIAACVA
Consider B1, for which the “Inhibition of the ELISA response” value in test [4] (P30 protein 35 ng/ml preincubated with 6 nM 1E1E7) came to 45%; in test [4] (P30 protein 3.5 μg/ml preincubated with 6 nM 1E1E7), 80%.
